Laboratory results published in patent US20130345199A1, “1-[M-CARBOXAMIDO(HETERO)ARYL-METHYL]-PIPERIDINE-4-CARBOXAMIDE DERIVATIVES” (Actelion Pharmaceuticals Ltd., priority 2012, published 2013).
pEC50: −log10 of the molar value.

The molecules below were run against T1, CXCR7 (Homo sapiens, UniProt P25106) (assay: PathHunter CHO-K1 CXCR7 b-arrestin assay (agonistic activity)). Settings: PathHunter CHO-K1 CXCR7 b-arrestin cell line, 90 minutes at 37° C.
T1 construct: host or cells: CHO-K1 (PathHunter CXCR7 b-arrestin cell line, stably transfected)
T1 sequence (P25106 whole entry): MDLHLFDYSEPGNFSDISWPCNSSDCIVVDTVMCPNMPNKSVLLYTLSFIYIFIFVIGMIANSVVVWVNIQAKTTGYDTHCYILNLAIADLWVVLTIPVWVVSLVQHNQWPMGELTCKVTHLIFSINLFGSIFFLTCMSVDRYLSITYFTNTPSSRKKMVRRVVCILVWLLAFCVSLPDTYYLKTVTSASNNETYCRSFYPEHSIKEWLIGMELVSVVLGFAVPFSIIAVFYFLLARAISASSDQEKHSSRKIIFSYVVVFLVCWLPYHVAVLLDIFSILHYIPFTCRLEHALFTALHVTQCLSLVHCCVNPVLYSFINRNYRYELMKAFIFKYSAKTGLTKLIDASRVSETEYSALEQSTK
Assay type: cell-based
Experimental: The […] receptor and CXCR7 agonistic activities of the compounds of formula (I) are determined in accordance with the following experimental method.
The assay is using the PathHunter™ CHO-K1 CXCR7 b-arrestin cell line from DiscoverX. The system is based on the Enzyme Fragment Complementation Technology. Two complementing fragments of the b-galactosidase enzyme are expressed within stably transfected cells. The larger portion of b-gal, termed EA for Enzyme Acceptor, is fused to the C-terminus of b-arrestin 2. The smaller fragment, termed ProLink™ tag, is fused to CXCR7 at the C-terminus. Upon activation, b-arrestin is recruited which forces the interaction of ProLink and EA, allowing complementation of the two fragments of b-gal and the formation of a functional enzyme which is capable of hydrolysing the substrate and generating a chemiluminescent signal.
CHO-K1 CXCR7 b-arrestin cells are detached from culture dishes with a cell dissociation buffer (Invitrogen, #13151-014) and collected in growing medium (F12HAMS 90% (v/v)/FCS 10% (v/v), Penicilin/streptomycin 1% (v/v)). 5000 cells per well (in 20 μl) are seeded in a 384 well plate (white-walled, clear bottom; BD Falcon #353274). The plate is incubated at 37° C./5% CO2 for 24 hours. Medium is then replaced by […] (Invitrogen #31985) for 3 to 4 hours. Test compounds are dissolved at 10 mM in DMSO and serially diluted in DMSO to 200× of the final concentration for dose response curves. Compounds are then diluted 1:33.3 in HBSS1X. 5 μl/well of HBSS1X/20 mM HEPES/0.2% BSA are added to the assay plate followed by addition of 5 μl/well of diluted compounds. CXCL12 (Peprotech #300-28A) may be used as a reference agonist. The plate is incubated for 90 minutes at 37° C. 12 μl of detection reagent (Path Hunter Detection Kit, DiscoveRx, #93-0001) is transferred to the assay plate and to the plate is incubated for 1 hour at room temperature. Luminescent signal is read in a microplate reader (FLUOstar Optima, bmg). The calculated EC50 values may fluctuate depending on the daily cellular assay performance. Fluctuations of this kind are known to those skilled in the art.

Going from `O=C(Nc1cccc(CN2CCC(F)(C(=O)NC3CCCCC3)CC2)c1)c1cccc(C(F)(F)F)n1` [Example 4.008, 6-Trifluoromethyl-pyridine-2-carboxylic acid [3-(4-cyclohexylcarbamoyl-4-fluoro-piperidin-1-ylmethyl)-phenyl]-amide] to `CNC(=O)C1CCN(Cc2cccc(NC(=O)c3ccc(Cl)cc3)c2)CC1` [Example 2.002], the pEC50 rises from 7.15 to 8.52 (1.37 log units). The second is the more potent here.

Compared with `O=C(Nc1cccc(CN2CCC(C(=O)NC3CCC3)CC2)c1)c1ccc(Cl)cc1` [Example 2.007], `O=C(Nc1cccc(CN2CCC(C(=O)NCc3ccc(Cl)cc3)CC2)c1)c1ccc(Cl)cc1` [Example 2.029] is 2.64 log units lower in pEC50: 9.00 for the first, 6.36 for the second. The first is the more potent here.

`Cc1cncc(C(=O)Nc2cccc(CN3CCC(C(=O)NC4(C#N)CC4)CC3)c2)c1` [Example 2.045] and `Cc1cc(CNC(=O)C2CCN(Cc3cccc(NC(=O)c4ccc(Cl)cc4)c3)CC2)c(C(F)(F)F)o1` [Example 2.034] are within 0.2 log units of each other in pEC50: 6.40 for the first, 6.27 for the second.

Compared with `Cc1cncc(C(=O)Nc2cccc(CN3CCC(C(=O)NC4CC4)CC3)c2)c1` [Example 2.037], `O=C(Nc1cccc(CN2CCC(C(=O)NC3CCCCC3)CC2)c1)c1cccc(C(F)(F)F)n1` [Example 1.002, 6-Trifluoromethyl-pyridine-2-carboxylic acid [3-(4-cyclohexylcarbamoyl-piperidin-1-ylmethyl)-phenyl]-amide] is 1.91 log units higher in pEC50: 7.09 for the first, 9.00 for the second. The second is the more potent here.

Compared with `CN(C)C(=O)C1CCN(Cc2cccc(NC(=O)c3cccs3)c2)CC1` [Example 2.073], `Cc1cncc(C(=O)Nc2cccc(CN3CCC(C(=O)NC(C)C)CC3)c2)c1` [Example 2.038] is 1.11 log units higher in pEC50: 6.81 for the first, 7.92 for the second. The second is the more potent here.

Going from `CC(C)(C)NC(=O)C1CCN(Cc2cc(NC(=O)Cc3ccccc3Cl)cs2)CC1` [Example 3.011, 1-{4-[2-(2-Chloro-phenyl)-acetylamino]-thiophen-2-ylmethyl}-piperidine-4-carboxylic acid tert-butylamide] to `O=C(Nc1cccc(CN2CCC(C(=O)NC3CCCC3)CC2)c1)c1ccc(F)c[n+]1[O-]` [Example 4.006, 5-Fluoro-1-oxy-pyridine-2-carboxylic acid [3-(4-cyclopentylcarbamoyl-piperidin-1-ylmethyl)-phenyl]-amide], the pEC50 rises from 7.55 to 9.00 (1.45 log units). The second is the more potent here.

Going from `COCC(C)NC(=O)C1CCN(Cc2cccc(NC(=O)c3cccc(C(F)(F)F)n3)c2)CC1` (stereo not drawn) [Example 2.092] to `O=C(Nc1cncc(CN2CCC(C(=O)NC3CCCCC3)CC2)c1)c1ccc(Cl)cc1` [Example 3.004, 1-[5-(4-Chloro-benzoylamino)-pyridin-3-ylmethyl]-piperidine-4-carboxylic acid cyclohexylamide], the pEC50 falls from 8.52 to 7.44 (1.08 log units).

Compared with `CCCCCCNC(=O)C1CCN(Cc2cccc(NC(=O)c3cccc(C(F)(F)F)n3)c2)CC1` [Example 2.078], `O=C(Nc1cc(CN2CCC(C(=O)NC3CCCCC3)CC2)ccn1)c1ccc(F)cc1` [Example 3.001, 1-[2-(4-Fluoro-benzoylamino)-pyridin-4-ylmethyl]-piperidine-4-carboxylic acid cyclohexylamide] is 1.03 log units higher in pEC50: 6.59 for the first, 7.62 for the second.

First: Cc1cncc(C(=O)Nc2cccc(CN3CCC(F)(C(=O)NC4CCCCC4)CC3)c2)c1 [Example 4.001, N-[3-(4-Cyclohexylcarbamoyl-4-fluoro-piperidin-1-ylmethyl)-phenyl]-5-methyl-nicotinamide]
Second: CC(C)(C)C1CCC(NC(=O)C2CCN(Cc3cccc(NC(=O)c4ccc(Cl)cc4)c3)CC2)CC1 (stereo not drawn) [Example 2.012]
The pEC50 of the first is 1.36 log units higher: 7.34 for the first, 5.98 for the second.

“N-[3-(4-tert-Butylcarbamoyl-piperidin-1-ylmethyl)-phenyl]-5-methoxy-nicotinamide [Example 4.014]” and `O=C(Nc1cccc(CN2CCC(C(=O)NC3CC4CCC3C4)CC2)c1)c1ccc(Cl)cc1` (racemic) [Example 2.008] are within 0.2 log units of each other in pEC50: 8.10 for the first, 8.22 for the second.

Compared with `Cc1cncc(C(=O)Nc2cccc(CN3CCC(C(=O)N4CCCC4C)CC3)c2)c1` (racemic) [Example 2.050], `CC(C)CNC(=O)C1CCN(Cc2cccc(NC(=O)c3cccc(C(F)(F)F)n3)c2)CC1` [Example 2.071] is 1.11 log units higher in pEC50: 7.59 for the first, 8.70 for the second. The second is the more potent here.

Going from `O=C(Nc1cccc(CN2CCC(C(=O)NC3CCCCC3)CC2)c1)c1cccnc1` [Example 1.003, N-[3-(4-Cyclohexylcarbamoyl-piperidin-1-ylmethyl)-phenyl]-nicotinamide] to `Cc1cncc(C(=O)Nc2ccc(F)c(CN3CCC(C(=O)NC4CCCCC4)CC3)c2)c1` [Example 4.018, N-[3-(4-Cyclohexylcarbamoyl-piperidin-1-ylmethyl)-4-fluoro-phenyl]-5-methyl-nicotinamide], the pEC50 rises from 7.64 to 7.96 (0.32 log units).

First: CC(NC(=O)C1CCN(Cc2cccc(NC(=O)c3ccc(Cl)cc3)c2)CC1)C1CCCCC1 (racemic) [Example 2.016]
Second: CC(C)(C)CNC(=O)C1CCN(Cc2cccc(NC(=O)c3cccc(C(F)(F)F)n3)c2)CC1 [Example 2.070]
The pEC50 of the first is 1.35 log units lower: 6.87 for the first, 8.22 for the second.

Compared with `CC(C)C(CO)NC(=O)C1CCN(Cc2cccc(NC(=O)c3cccc(C(F)(F)F)n3)c2)CC1` (racemic) [Example 2.064], `CCC(C)(C)NC(=O)C1CCN(Cc2cccc(NC(=O)c3cncc(C)c3)c2)CC1` [Example 2.059] is 1.46 log units higher in pEC50: 7.06 for the first, 8.52 for the second. The second is the more potent here.

`CCC(C)NC(=O)C1CCCN(Cc2cccc(NC(=O)c3cccc(C(F)(F)F)n3)c2)CC1` (racemic) [Example 2.087] and `O=C(Nc1cccc(CN2CCC(C(=O)NC3CCCCC3)CC2)c1)c1cccs1` [Example 2.075] are within 0.2 log units of each other in pEC50: 8.22 for the first, 8.15 for the second.

Compared with `O=C(Nc1cccc(CN2CCC(C(=O)NCC(F)(F)F)CC2)c1)c1ccc(Cl)cc1` [Example 2.031], `O=C(Nc1cccc(CN2CCC(C(=O)NCC3CCCCC3)CC2)c1)c1ccc(Cl)cc1` [Example 2.015] is 1.18 log units lower in pEC50: 8.52 for the first, 7.34 for the second.

Going from `Cc1cncc(C(=O)Nc2cccc(CN3CCC(C(=O)NC4CCC(F)(F)CC4)CC3)c2)c1` [Example 2.044] to `COc1cncc(C(=O)Nc2cccc(CN3CCC(C(=O)NC4CCCC4)CC3)c2)c1` [Example 4.013, N-[3-(4-Cyclopentylcarbamoyl-piperidin-1-ylmethyl)-phenyl]-5-methoxy-nicotinamide], the pEC50 rises from 7.57 to 8.05 (0.48 log units). The second is the more potent here.

Going from “1-{4-Chloro-3-[(2-phenyl-cyclopropanecarbonyl)-amino]-benzyl}-piperidine-4-carboxylic acid cyclohexylamide [Example 1.161]” to `O=C(Nc1cccc(CN2CCC(C(=O)NCc3ccncc3)CC2)c1)c1ccc(Cl)cc1` [Example 2.021], the pEC50 falls from 7.59 to 6.66 (0.93 log units).

Going from `O=C(NC1CCCCC1)C1CCN(Cc2cccc(NC(=O)[C@@H]3C[C@@H]4CC[C@H]3C4)c2)CC1` (racemic) [Example 1.018, Rac-1-{3-[((1S,2R,4R)-Bicyclo[2.2.1]heptane-2-carbonyl)-amino]-benzyl}-piperidine-4-carboxylic acid cyclohexylamide] to `O=C(Nc1cccc(CN2CCC(C(=O)NC3CCCc4ccccc43)CC2)c1)c1ccc(Cl)cc1` (racemic) [Example 2.019], the pEC50 falls from 8.30 to 7.40 (0.90 log units).

Going from `CC(C)(C)NC(=O)C1CCCN(Cc2cccc(NC(=O)c3cccc(C(F)(F)F)n3)c2)CC1` (racemic) [Example 2.086] to `O=C(Nc1cccc(CN2CCC(C(=O)NCc3cccnc3)CC2)c1)c1ccc(Cl)cc1` [Example 2.023], the pEC50 falls from 8.00 to 6.79 (1.21 log units).

Going from `Cc1cncc(C(=O)Nc2cccc(CN3CCC(C(=O)N4CCCC4(C)C)CC3)c2)c1` [Example 2.060] to `Cc1cncc(C(=O)Nc2cccc(CN3CCC(C(=O)NCC4CC4)CC3)c2)c1` [Example 2.043], the pEC50 falls from 8.00 to 7.70 (0.30 log units). The first is the more potent here.

Compared with `CC(C)(C)NC(=O)C1CCN(Cc2cc(NC(=O)c3cccc(C(F)(F)F)n3)ncn2)CC1` [Example 5.001, 6-Trifluoromethyl-pyridine-2-carboxylic acid [6-(4-tert-butylcarbamoyl-piperidin-1-ylmethyl)-pyrimidin-4-yl]-amide], `O=C(Nc1cccc(CN2CCC(C(=O)NC3CCCCC3)CC2)n1)c1ccc(F)cc1` [Example 3.003, 1-[6-(4-Fluoro-benzoylamino)-pyridin-2-ylmethyl]-piperidine-4-carboxylic acid cyclohexylamide] is 0.76 log units lower in pEC50: 7.54 for the first, 6.78 for the second. The first is the more potent here.

First: O=C(Nc1cccc(CN2CCC(C(=O)NC3CCC(F)(F)CC3)CC2)c1)c1ccc(Cl)cc1 [Example 2.014]
Second: Cc1cncc(C(=O)Nc2cccc(CN3CCC(C(=O)N4CCCCCC4)CC3)c2)c1 [Example 2.048]
The pEC50 of the first is 0.98 log units higher: 8.70 for the first, 7.72 for the second. The first is the more potent here.

First: O=C(Nc1cccc(CN2CCC(C(=O)NC3CCc4ccccc43)CC2)c1)c1ccc(Cl)cc1 (racemic) [Example 2.020]
Second: O=C(Nc1cccc(CN2CCC(C(=O)N[C@H](CO)C3CCCCC3)CC2)c1)c1cccc(C(F)(F)F)n1 [Example 2.066]
The pEC50 of the first is 1.31 log units higher: 7.68 for the first, 6.37 for the second. The first is the more potent here.
